Measured values taken from US20160355530A1, “HEPATITIS C INHIBITORS AND USES THEREOF” (AbbVie Inc., priority 2010, published 2016).
pEC50, pIC50: −log10 of the molar value. Like-named read-outs stand apart in the source and are kept apart here.

Tests used:
[1] = target: T1, HCV NS5B polymerase 1b BK strain (Hepatitis C virus genotype 1b, UniProt P26663); test: HCV NS5B polymerase enzymatic inhibition assay, strain 1b BK; format: biochemical; settings: enzyme, strain 1b BK; read-out: HCV Polymerase Strain 1b BK IC50
T1 construct: six-histidine tag; made in house; host or cells: E. coli
Summary of the method: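 Incorporation of [3H]UTP (0.284 μM), alongside 20 μM each CTP and ATP, into RNA copied from a 5 nM 2.1 kb genotype 1b negative-strand template was measured after 3 h at 30° C using purified His-tagged NS5B truncated at residue 570. Product was spermine-precipitated, filtered and scintillation-counted; nonlinear regression gave IC50.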

[2] = test system: HCV 1b-BB7 subgenomic replicon; test: microbe, parasite or virus in culture; format: cell-based, HCV genotype 1b; settings: Hepatitis C virus, stable replicon
[3] = test system: chimeric replicon with 2a-J6CF-derived NS5B; test: microbe, parasite or virus in culture; format: cell-based, HCV genotype 2a; settings: Hepatitis C virus, read-out: 2a chimera 5% FBS EC50
[4] = test system: chimeric replicon with genotype 2b NS5B; test: microbe, parasite or virus in culture; format: cell-based, HCV genotype 2b; settings: Hepatitis C virus, read-out: 2b chimera 5% FBS EC50
[5] = test system: HCV 1b-Con1 subgenomic replicon; test: Stable replicon cell culture assay (luciferase), 1b-Con1; 5% FBS, optionally 40% human plasma; format: cell-based, HCV genotype 1b; settings: Hepatitis C virus
[6] = strain 1b BB7, 5% FBS + 40% human plasma, read-out: 1b BB7 5% FBS + 40% Human Plasma EC50
[7] = strain 1b BB7, 5% FBS, no human plasma, read-out: 1b BB7 5% FBS EC50
[8] = strain 1b BB7, 5% FBS, read-out: 1b BB7 5% FBS EC50
[9] = strain 1b Con1, 5% FBS + 40% human plasma, read-out: 1b Con1 5% FBS + 40% Human Plasma EC50
[10] = strain 1b Con1, 5% FBS, no human plasma, read-out: 1b Con1 5% FBS EC50
[11] = strain 1b Con1, 5% FBS, read-out: 1b Con1 5% FBS EC50

T1 sequence (P26663 2420-2989): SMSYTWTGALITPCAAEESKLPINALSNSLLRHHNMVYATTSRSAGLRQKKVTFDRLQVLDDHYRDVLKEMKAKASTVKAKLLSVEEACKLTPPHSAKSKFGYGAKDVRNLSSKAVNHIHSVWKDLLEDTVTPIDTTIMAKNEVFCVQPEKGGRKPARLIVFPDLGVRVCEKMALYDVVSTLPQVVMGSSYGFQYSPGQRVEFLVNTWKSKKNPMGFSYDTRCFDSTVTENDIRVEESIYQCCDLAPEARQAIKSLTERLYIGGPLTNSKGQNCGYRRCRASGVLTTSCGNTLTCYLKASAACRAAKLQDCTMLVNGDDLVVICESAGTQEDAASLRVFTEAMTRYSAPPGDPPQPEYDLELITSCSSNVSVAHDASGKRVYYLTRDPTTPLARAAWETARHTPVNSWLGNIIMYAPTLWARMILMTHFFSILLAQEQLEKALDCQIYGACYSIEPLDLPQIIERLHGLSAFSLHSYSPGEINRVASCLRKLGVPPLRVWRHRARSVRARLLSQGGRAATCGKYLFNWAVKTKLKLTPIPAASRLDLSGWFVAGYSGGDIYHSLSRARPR

SMILES | pIC50 [1] | pEC50 [2, 6] | pEC50 [2, 7] | pEC50 [2, 8] | pEC50 [3] | pEC50 [4] | pEC50 [5, 9] | pEC50 [5, 10] | pEC50 [5, 11]
CS(=O)(=O)N(CCO)c1cc2oc(-c3ccc(F)cc3)c(-c3ncc[nH]3)c2cc1C1CC1 [Example 109, N-[5-cyclopropyl-2-(4-fluorophenyl)-3-(1H-imidazol-2-yl)-1-benzofuran-6-yl]-N-(2-hydroxyethyl)methanesulfonamide] | 7.21 | 6.74 | 7.90 | 7.90 | 6.94 | 6.92 | – | – | –
CS(=O)(=O)N(CCO)c1cc2oc(-c3ccc(F)cc3)c(C3=NOCCN3)c2cc1C1CC1 [Example 136, N-[5-cyclopropyl-3-(5,6-dihydro-4H-1,2,4-oxadiazin-3-yl)-2-(4-fluorophenyl)-1-benzofuran-6-yl]-N-(2-hydroxyethyl)methanesulfonamide] | 6.70 | 6.55 | 7.46 | 7.46 | 6.69 | 6.37 | – | – | –
CCCC/C=C/c1ccc(-c2oc3cc(N(CCCCS(C)(=O)=O)S(C)(=O)=O)c(C4CC4)cc3c2-c2ncc[nH]2)cc1 [Example 168, N-[5-cyclopropyl-2-{4-[(1E)-hex-1-en-1-yl]phenyl}-3-(1H-imidazol-2-yl)-1-benzofuran-6-yl]-N-[4-(methylsulfonyl)butyl]methanesulfonamide] | 7.41 | – | – | – | 8.22 | 7.88 | 7.61 | 8.47 | 8.47
CS(=O)(=O)CCCCN(c1cc2oc(-c3ccc(Nc4ccccc4)cc3)c(-c3ncc[nH]3)c2cc1C1CC1)S(C)(=O)=O [Example 169, N-[2-(4-anilinophenyl)-5-cyclopropyl-3-(1H-imidazol-2-yl)-1-benzofuran-6-yl]-N-[4-(methylsulfonyl)butyl]methanesulfonamide] | 7.41 | – | – | – | 7.77 | 7.91 | 7.46 | 8.30 | 8.35
